Measured values from US11174251B2, “Compositions and methods for inhibition of the JAK pathway” (Rigel Pharmaceuticals, Inc., priority 2010, dated 2021).
Where a name gives a salt, the structure may show the parent alone.

biological target: T1, JAK3 (Homo sapiens, UniProt P52333); test: Assay for CD23 expression on Ramos B-cells stimulated by IL-4 (Table IV: ability to inhibit JAK3 activity); type: cell-based; details: tested under conditions described in Example 3 (so in the source)
T1 construct: The Ramos B-cell line was acquired from ATCC (ATCC Catalog No. CRL-1596); host or cells: Ramos B-cell line (human)
T1 sequence (P52333 1-1124): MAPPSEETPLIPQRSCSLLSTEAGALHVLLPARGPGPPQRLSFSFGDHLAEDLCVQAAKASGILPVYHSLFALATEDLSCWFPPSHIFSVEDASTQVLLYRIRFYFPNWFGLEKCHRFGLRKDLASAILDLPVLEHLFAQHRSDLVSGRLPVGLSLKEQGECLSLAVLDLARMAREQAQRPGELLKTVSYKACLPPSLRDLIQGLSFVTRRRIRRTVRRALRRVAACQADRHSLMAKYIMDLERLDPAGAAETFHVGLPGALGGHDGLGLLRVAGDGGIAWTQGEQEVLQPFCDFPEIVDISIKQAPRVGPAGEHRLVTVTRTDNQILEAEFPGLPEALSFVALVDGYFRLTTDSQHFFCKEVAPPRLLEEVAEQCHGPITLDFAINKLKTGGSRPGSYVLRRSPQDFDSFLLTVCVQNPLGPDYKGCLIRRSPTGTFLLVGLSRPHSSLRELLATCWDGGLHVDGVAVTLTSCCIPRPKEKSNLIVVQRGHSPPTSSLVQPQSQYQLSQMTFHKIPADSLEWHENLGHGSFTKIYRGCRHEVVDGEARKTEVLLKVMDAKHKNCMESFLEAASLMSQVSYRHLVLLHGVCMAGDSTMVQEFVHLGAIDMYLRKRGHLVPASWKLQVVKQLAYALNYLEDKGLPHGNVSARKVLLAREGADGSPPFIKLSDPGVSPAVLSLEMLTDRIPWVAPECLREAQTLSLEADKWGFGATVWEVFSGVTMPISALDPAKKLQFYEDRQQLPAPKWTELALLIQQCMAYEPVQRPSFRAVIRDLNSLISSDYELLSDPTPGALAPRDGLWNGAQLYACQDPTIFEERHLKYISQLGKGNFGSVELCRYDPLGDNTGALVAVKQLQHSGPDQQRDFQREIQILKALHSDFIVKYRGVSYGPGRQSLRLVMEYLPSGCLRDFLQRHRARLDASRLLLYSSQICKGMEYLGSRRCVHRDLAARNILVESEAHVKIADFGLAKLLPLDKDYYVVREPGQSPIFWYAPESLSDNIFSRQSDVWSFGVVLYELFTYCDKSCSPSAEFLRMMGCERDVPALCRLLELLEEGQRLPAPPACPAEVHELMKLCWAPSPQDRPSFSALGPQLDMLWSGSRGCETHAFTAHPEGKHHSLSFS
Source text: One means of assaying for such inhibition is detection of the effect of the 2,4-pyrimidinediamine compounds on the upregulation of downstream gene products. In the Ramos/IL4 assay, B-cells are stimulated with the cytokine Interleukin-4 (IL-4) leading to the activation of the JAK/Stat pathway through phosphorylation of the JAK family kinases, JAK1 and JAK3, which in turn phosphorylate and activate the transcription factor Stat-6. […] To study the effect of inhibitors (for example, the 2,4-substituted pyrimindinediamine compounds described herein) on the JAK1 and JAK3 kinases, human Ramos B cells are stimulated with human IL-4. 20 to 24 hours post stimulation, cells are stained for upregulation of CD23 and analyzed using FACS.
B-cells stimulated with cytokine Interleukin-4 (IL-4) activate the JAK/Stat pathway through phosphorylation of the JAK family kinases, JAK-1 and JAK-3, which in turn phosphorylate and activate the transcription factor Stat-6. […] To study the effect of inhibitors on the JAK family kinases, human Ramos B cells were stimulated with human IL-4 and the surface expression of CD23 was measured.
The day before the experiment, Ramos B-cells were diluted to 3.5×10^5 cells/mL to ensure that they were in a logarithmic growth phase.
Cells were spun down and suspended in RPMI with 5% serum. 5×10^4 cells were used per point in a 96-well tissue culture plate. Cells were pre-incubated with compound or DMSO (Sigma-Aldrich, St. Louis, Mo., Cat No. D2650) vehicle control for 1 hour in a 37° C. incubator. Cells were then stimulated with IL-4 (Peprotech Inc., Rocky Hill, N.J., Cat No. 200-04) for a final concentration of 50 units/mL for 20-24 hours. […] Detection was performed using a BD LSR I System Flow Cytometer, purchased from Becton Dickinson Biosciences of San Jose, Calif.
The compound designations in Table IV are consistent with those of Tables I-II above.

Row | Structure (SMILES) | IC50 [nM]
1 | O=c1[nH]c2cc(Nc3nc(Nc4ccc(C(F)(F)F)cc4)ncc3Cl)ccc2o1 [Compound I-15, 5-(5-chloro-2-(4-(trifluoromethyl)phenylamino)pyrimidin-4-ylamino)benzo[d]oxazol-2(3H)-one trifluoroacetate salt] | < 500
2 | Cc1cc(Nc2ncc(Br)c(Nc3ccc4oc(=O)[nH]c4c3)n2)cc(C)c1C [Compound I-16, 5-(5-bromo-2-(3,4,5-trimethylphenylamino)pyrimidin-4-ylamino)benzo[d]oxazol-2(3H)-one formate salt] | < 500
3 | C#Cc1cnc(Nc2cc(C)c(C)c(C)c2)nc1Nc1ccc2oc(=O)[nH]c2c1 [Compound I-18, 5-[5-Ethynyl-2-(3,4,5-trimethyl-phenylamino)-pyrimidin-4-ylamino]-3H-benzooxazol-2-one trifluoroacetate salt] | < 500
4 | COc1cccc(Nc2ncc(F)c(Nc3ccc4oc(=O)[nH]c4c3)n2)c1F [Compound I-20, 5-(5-fluoro-2-(2-fluoro-3-methoxyphenylamino)pyrimidin-4-ylamino)benzo[d]oxazol-2(3H)-one trifluoroacetate salt] | 500 to 5000
5 | COc1cccc(Nc2ncc(Cl)c(Nc3ccc4oc(=O)[nH]c4c3)n2)c1F [Compound I-21, 5-(5-chloro-2-(2-fluoro-3-methoxyphenylamino)pyrimidin-4-ylamino)benzo[d]oxazol-2(3H)-one trifluoroacetate salt] | < 500
6 | COc1cccc(Nc2ncc(Br)c(Nc3ccc4oc(=O)[nH]c4c3)n2)c1F [Compound I-22, 5-(5-bromo-2-(2-fluoro-3-methoxyphenylamino)pyrimidin-4-ylamino)benzo[d]oxazol-2(3H)-one trifluoroacetate salt] | < 500
7 | COc1cccc(Nc2nccc(Nc3ccc4oc(=O)[nH]c4c3)n2)c1F [Compound I-23, 5-(2-(2-fluoro-3-methoxyphenylamino)pyrimidin-4-ylamino)benzo[d]oxazol-2(3H)-one] | 500 to 5000
8 | Cc1cnc(N(C)c2ccccc2)nc1Nc1ccc2oc(=O)[nH]c2c1 [Compound I-26, 5-[5-Methyl-2-(methyl-phenyl-amino)-pyrimidin-4-ylamino]-3H-benzooxazol-2-one] | 500 to 5000
9 | COc1c(Br)ccc(Nc2ncc(C)c(Nc3ccc4oc(=O)[nH]c4c3)n2)c1F [Compound I-27, 5-[2-(4-Bromo-2-fluoro-3-methoxy-phenylamino)-5-methyl-pyrimidin-4-ylamino]-3H-benzooxazol-2-one] | < 500
10 | COc1c(C)ccc(Nc2ncc(C)c(Nc3ccc4oc(=O)[nH]c4c3)n2)c1F [Compound I-29, 5-[2-(2-Fluoro-3-methoxy-4-methyl-phenylamino)-5-methyl-pyrimidin-4-ylamino]-3H-benzooxazol-2-one trifluoroacetate salt] | < 500
11 | COc1cc(Nc2ncc(Cl)c(Nc3ccc4oc(=O)[nH]c4c3)n2)ccc1C [Compound I-32, 5-(5-chloro-2-(3-methoxy-4-methylphenylamino)pyrimidin-4-ylamino)benzo[d]oxazol-2(3H)-one trifluoroacetate salt] | < 500
12 | [2H]C([2H])([2H])c1c(C)cc(Nc2ncc(C)c(Nc3ccc4oc(=O)[nH]c4c3)n2)cc1C [Compound I-35, 5-[5-Methyl-2-(3,5-dimethyl-4-d3-methyl-phenylamino)-pyrimidin-4-ylamino]-3H-benzooxazol-2-one trifluoroacetate salt] | < 500
13 | [2H]C([2H])([2H])c1c(C)cc(Nc2ncc(Cl)c(Nc3ccc4oc(=O)[nH]c4c3)n2)cc1C [Compound I-36, 5-(5-chloro-2-(3,5-dimethyl-4-d3-methyl)phenylamino)pyrimidin-4-ylamino)benzo[d]oxazol-2(3H)-one trifluoroacetate salt] | < 500
14 | [2H]C([2H])([2H])c1c(C)cc(Nc2ncc(F)c(Nc3ccc4oc(=O)[nH]c4c3)n2)cc1C [Compound I-37, 5-(5-fluoro-2-(3,5-dimethyl-4-d3-methyl)phenylamino)pyrimidin-4-ylamino)benzo[d]oxazol-2(3H)-one trifluoroacetate salt] | > 10000
15 | [2H]C([2H])([2H])c1c(C)cc(Nc2nccc(Nc3ccc4oc(=O)[nH]c4c3)n2)cc1C [Compound I-38, 5-(2-(3,5-dimethyl-4-d3-methyl)phenylamino)pyrimidin-4-ylamino)benzo[d]oxazol-2(3H)-one trifluoroacetate salt] | < 500
16 | COC(=O)c1cnc(Nc2ccccc2)nc1Nc1ccc2oc(=O)[nH]c2c1 [Compound I-39, 4-(2-oxo-2,3-dihydro-benzooxazol-5-ylamino)-2-phenylamino-pyrimidine-5-carboxylic acid methyl ester trifluoroacetate salt] | > 10000

More lines, now with the values ahead:

Row | IC50 [nM] | Structure (SMILES)
17 | < 500 | Cc1ccc(Nc2ncc(C)c(Nc3ccc4oc(=O)[nH]c4c3)n2)cc1N(C)C [Compound I-17, 5-[2-(3-Dimethylamino-4-methyl-phenylamino)-5-methyl-pyrimidin-4-ylamino]-3H-benzooxazol-2-one]
18 | < 500 | COc1cccc(Nc2ncc(C)c(Nc3ccc4oc(=O)[nH]c4c3)n2)c1F [Compound I-19, 5-[2-(2-Fluoro-3-methoxy-phenylamino)-5-methyl-pyrimidin-4-ylamino]-3H-benzooxazol-2-one]
19 | < 500 | Cc1cnc(Nc2cccc(N(C)C)c2)nc1Nc1ccc2oc(=O)[nH]c2c1 [Compound I-24, 5-[2-(3-Dimethylamino-phenylamino)-5-methyl-pyrimidin-4-ylamino]-3H-benzooxazol-2-one trifluoroacetate salt]
20 | < 500 | Cc1cnc(Nc2ccc(N(C)C)cc2)nc1Nc1ccc2oc(=O)[nH]c2c1 [Compound I-25, 5-[2-(4-Dimethylamino-phenylamino)-5-methyl-pyrimidin-4-ylamino]-3H-benzooxazol-2-one]
21 | < 500 | Cc1cnc(Nc2ccc(Br)cc2F)nc1Nc1ccc2oc(=O)[nH]c2c1 [Compound I-28, 5-[2-(4-Bromo-2-fluoro-phenylamino)-5-methyl-pyrimidin-4-ylamino]-3H-benzooxazol-2-one]
22 | < 500 | Cc1cnc(Nc2ccc(CC=O)cc2)nc1Nc1ccc2oc(=O)[nH]c2c1 [Compound I-30, {4-[5-Methyl-4-(2-oxo-2,3-dihydro-benzooxazol-5-ylamino)-pyrimidin-2-ylamino]-phenyl}-acetaldehyde]
23 | < 500 | C#Cc1cccc(Nc2ncc(C)c(Nc3ccc4oc(=O)[nH]c4c3)n2)c1 [Compound I-31, 5-[2-(3-Ethynyl-phenylamino)-5-methyl-pyrimidin-4-ylamino]-3H-benzooxazol-2-one]
24 | < 500 | Cc1ccc(Nc2ncc(Cl)c(Nc3ccc4oc(=O)[nH]c4c3)n2)cc1N(C)C [Compound I-33, 5-(5-chloro-2-(3-(dimethylamino)-4-methylphenylamino)pyrimidin-4-ylamino)benzo[d]oxazol-2(3H)-one]
25 | < 500 | COc1ccc(Nc2ncc(C)c(Nc3ccc4oc(=O)[nH]c4c3)n2)cc1N [Compound I-34, 5-[2-(3-Amino-4-methoxy-phenylamino)-5-methyl-pyrimidin-4-ylamino]-3H-benzooxazol-2-one]
